In patent publication US6511815B1, “Method for quantitating competitive binding of molecules to proteins utilizing fluorescence polarization” (priority 1996, dated 2003):

Target: T1, Estrogen receptor (Homo sapiens, UniProt P03372)
T1 construct: purchased PanVera Corporation, Madison, Wis
Experiment: Competitive fluorescence polarization assay, displacement of fluormone ES1 from ER by environmental compounds
Assay type: binding
Settings: 1 nM ES1, 10 nM ER, 2.5 hours at room temperature, 360/485 nm
Method: Many compounds found in the environment are know to act as natural estrogens. […] The two pesticides were tested individually and together. […] Estrogen receptor was added to each tube at a final concentration of 10 nM. The mixtures were allowed to equilibrate for 2.5 hours at room temperature and the polarization values were read 360/485 nm excitation/emission.

T1 sequence (P03372 whole entry): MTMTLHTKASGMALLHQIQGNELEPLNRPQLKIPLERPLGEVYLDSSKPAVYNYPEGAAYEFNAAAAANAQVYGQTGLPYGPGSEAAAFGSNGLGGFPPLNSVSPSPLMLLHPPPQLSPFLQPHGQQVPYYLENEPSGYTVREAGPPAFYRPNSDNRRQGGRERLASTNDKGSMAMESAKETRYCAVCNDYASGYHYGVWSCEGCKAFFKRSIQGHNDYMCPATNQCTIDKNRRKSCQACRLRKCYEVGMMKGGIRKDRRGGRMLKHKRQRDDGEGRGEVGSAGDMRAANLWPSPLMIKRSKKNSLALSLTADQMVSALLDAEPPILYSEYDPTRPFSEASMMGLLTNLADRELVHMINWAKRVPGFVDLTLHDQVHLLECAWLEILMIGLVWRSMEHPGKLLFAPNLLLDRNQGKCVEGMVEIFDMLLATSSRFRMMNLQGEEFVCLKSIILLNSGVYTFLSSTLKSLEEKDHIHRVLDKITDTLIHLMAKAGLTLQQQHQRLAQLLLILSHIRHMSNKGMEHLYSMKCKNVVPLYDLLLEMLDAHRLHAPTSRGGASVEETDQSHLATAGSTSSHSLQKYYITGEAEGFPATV

For `ClC1=C(Cl)C2(Cl)C3C(Cl)C(Cl)CC3C1(Cl)C2(Cl)Cl` (stereo not shown) [chlordane], the “ability to displace fluormone ES1 binding to ER” value was “effectively competed the fluormone ES1 off the estrogen receptor”.
